Assay results from US8895471B2, “Chiral3-(benzylsulfinyl)-5,5-dimethyl-4,5-dihydroisoxazole derivatives and 5,5-dimethyl-3-[(1h-pyrazol-4-ylmethyl)sulfinyl]-4,5-dihyddroisoxazole derivatives, method for the production thereof, and use of same as herbicides and plant growth regulators” (Bayer Cropscience AG, priority 2007, dated 2014).

Key:
[1] = tested on: Zea mays (corn); assay: Pre-emergence herbicidal effect and crop plant compatibility, ZEAMX; format: in vivo; conditions: scored after about 3 weeks
Description: (§1) 1. Pre-emergence herbicidal effect and crop plant compatibility
(§2) • Seeds of monocotyledonous or dicotyledonous weed plants or crop plants are planted in wood-fiber pots in sandy loam and covered with soil. The compounds according to the invention, formulated in the form of wettable powders (WP), are then applied as aqueous suspension at a water application rate of 600 l/ha (converted) with the addition of 0.2% of wetting agent to the surface of the covering soil. • After the treatment, the pots are placed in a greenhouse and kept under good growth conditions for the test plants. After about 3 weeks, the effect of the preparations is scored visually in comparison with untreated controls (herbicidal effect in percent (%): 100% activity=the plants have died, 0% activity=like control plants). • As shown by the results, the compounds according to the invention have good herbicidal pre-emergence activity against a broad spectrum of weed grasses and broad-leaved weeds. […] Some of the compounds according to the invention have high selectivity and are therefore suitable for controlling unwanted vegetation in agricultural crops by the pre-emergence method.
(§3) • ALOMY Alopecurus myosuroides (black-grass) • LOLMU: Lolium multiflorum (Italian ryegrass) • SETVI: Setaria viridis (green foxtail) • BRSNW: Brassica napus (winter rape) • ZEAMX: Zea mays (corn) 2. Post-Emergence Herbicidal Effect and Crop Plant Compatibility • Seeds of monocotyledonous and dicotyledonous weed and crop plants are placed in sandy loam in wood fibre pots, covered with soil and cultivated in a greenhouse under good growth conditions. 2 to 3 weeks after sowing, the test plants are treated at the one-leaf stage. The compounds according to the invention, formulated in the form of wettable powders (WP), are then applied by spraying as aqueous suspension at a water application rate of 600 l/ha (converted) with the addition of 0.2% of wetting agent to the green parts of the plants. After the test plants have been kept in the greenhouse under optimum growth conditions for about 3 weeks, the activity of the preparations is rated visually in comparison to untreated controls (herbicidal activity in percent (%): 100% activity=the plants have died, 0% activity=like control plants). • As shown by the results, the compounds according to the invention have good herbicidal post-emergence activity against a plurality of weed grasses and broad-leaved weeds. […] Some of the compounds according to the invention have high selectivity and are therefore suitable for controlling unwanted vegetation in agricultural crops by the post-emergence method.

[2] = tested on: VERPE; assay: Pre-emergence herbicidal effect, VERPE; format: in vivo, Veronica persica; conditions: scored after about 3 weeks
Description: as §1, §2

[3] = tested on: Alopecurus myosuroides (black-grass); assay: Pre-emergence herbicidal effect, ALOMY; format: in vivo; conditions: scored after about 3 weeks
Description: as §1, §2, §3

[4] = tested on: POLCO; assay: Pre-emergence herbicidal effect, POLCO; format: in vivo; conditions: scored after about 3 weeks
Description: as §1, §2

[5] = tested on: Brassica napus (winter rape); assay: Pre-emergence herbicidal effect and crop plant compatibility, BRSNW; format: in vivo; conditions: scored after about 3 weeks
Description: as §1, §2, §3

[6] = tested on: Avena fatua, Stellaria media, Echinochloa crus-galli, Lolium multiflorum, Setaria viridis, Amaranthus retroflexus, Viola tricolor, Veronica persica and …; assay: Pre-emergence herbicidal activity against harmful plants; format: in vivo; conditions: application rate of 0.32 kg and less of active substance per hectare
Description: as §1, §2

[7] = tested on: Setaria viridis (green foxtail); assay: Pre-emergence herbicidal effect, SETVI; format: in vivo; conditions: scored after about 3 weeks
Description: as §1, §2, §3

[8] = tested on: Avena fatua, Echinochloa crus-galli, Lolium multiflorum, Setaria viridis and Alopecurus myosuroides; assay: Post-emergence herbicidal effect and crop plant compatibility; format: in vivo; conditions: application rate of 0.32 kg and less of active substance per hectare
Description: as §3

[9] = tested on: Lolium multiflorum (Italian ryegrass); assay: Pre-emergence herbicidal effect, LOLMU; format: in vivo; conditions: scored after about 3 weeks
Description: as §1, §2, §3

Structure (SMILES) | herbicidal effect in percent, ZEAMX (crop plant) ([1]; 20 g of active compound/ha) [%] | herbicidal effect in percent, ZEAMX (crop plant) ([1]; 80 g of active compound/ha) [%] | herbicidal effect in percent, VERPE ([2]; 20 g of active compound/ha) [%] | herbicidal effect in percent, ALOMY ([3]; 20 g of active compound/ha) [%] | herbicidal effect in percent, ALOMY ([3]; 80 g of active compound/ha) [%] | herbicidal effect in percent, POLCO ([4]; 80 g of active compound/ha) [%] | herbicidal effect in percent, BRSNW (crop plant) ([5]; 20 g of active compound/ha) [%] | herbicidal effect in percent, BRSNW (crop plant) ([5]; 80 g of active compound/ha) [%] | herbicidal activity against harmful plants, pre-emergence method [6] | herbicidal effect in percent, SETVI ([7]; 20 g of active compound/ha) [%] | herbicidal effect in percent, SETVI ([7]; 80 g of active compound/ha) [%] | herbicidal activity against harmful plants, post-emergence method [8] | herbicidal effect in percent, LOLMU ([9]; 20 g of active compound/ha) [%] | herbicidal effect in percent, LOLMU ([9]; 80 g of active compound/ha) [%] | herbicidal effect in percent, BRSNW (crop plant) ([5]; 320 g of active compound/ha) [%] | herbicidal effect in percent, SETVI ([7]; 320 g of active compound/ha) [%] | herbicidal effect in percent, ALOMY ([3]; 320 g of active compound/ha) [%] | herbicidal effect in percent, LOLMU ([9]; 320 g of active compound/ha) [%] | herbicidal effect in percent, VERPE ([2]; 80 g of active compound/ha) [%] | herbicidal effect in percent, POLCO ([4]; 20 g of active compound/ha) [%]
CC1(C)CC([S+]([O-])Cc2c(Cl)cccc2Cl)=NO1 (racemic) [Racemate of 32 (S config.) and 254 (R config.), 3-[(2,6-dichlorobenzyl)sulfinyl]-5,5-dimethyl-4,5-dihydroisoxazole, reference compound] | 0 | 10 | 0 | 80 | 90 | 20 | – | – | – | – | – | – | – | – | – | – | – | – | – | –
Cn1nc(C(F)(F)F)c(C[S@+]([O-])C2=NOC(C)(C)C2)c1OC(F)F [Compound 483, 3-[(S)-{[5-(Difluoromethoxy)-1-methyl-3-(trifluoromethyl)-1H-pyrazol-4-yl]methyl}sulfinyl]-5,5-dimethyl-4,5-dihydroisoxazole] | – | – | – | 80 | 100 | – | 0 | 0 | very good herbicidal activity | 80 | 90 | very good herbicidal activity | 60 | 100 | – | – | – | – | – | –
Cn1nc(C(F)(F)F)c(C[S@@+]([O-])C2=NOC(C)(C)C2)c1OC(F)F [Compound 664, 3-[(R)-{[5-(difluoromethoxy)-1-methyl-3-(trifluoromethyl)-1H-pyrazol-4-yl]methyl}sulfinyl]-5,5-dimethyl-4,5-dihydroisoxazole] | – | – | – | – | – | – | – | – | very good herbicidal activity | – | – | very good herbicidal activity | – | – | – | – | – | – | – | –
CC1(C)CC([S@+]([O-])Cc2c(F)cccc2F)=NO1 [Compound 228, 3-[(R)-(2,6-difluorobenzyl)sulfinyl]-5,5-dimethyl-4,5-dihydroisoxazole] | – | – | – | – | 60 | – | – | 0 | very good herbicidal activity | – | 0 | very good herbicidal activity | – | 0 | 0 | 50 | 80 | 0 | – | –
CC1(C)CC([S@+]([O-])Cc2c(Cl)cccc2Cl)=NO1 [Compound 254, 3-[(R)-(2,6-dichlorobenzyl)sulfinyl]-5,5-dimethyl-4,5-dihydroisoxazole] | 0 | 0 | 0 | 0 | 60 | 20 | – | – | very good herbicidal activity | – | – | very good herbicidal activity | – | – | – | – | – | – | 20 | 10
CC1(C)CC([S+]([O-])Cc2c(F)cccc2F)=NO1 (racemic) [Racemate of 6 (S config.) and 228 (R config.), 3-[(2,6-difluorobenzyl)sulfinyl]-5,5-dimethyl-4,5-dihydroisoxazole, reference compound] | – | – | – | – | 70 | – | – | 20 | – | – | 40 | – | – | 80 | 30 | 40 | 100 | 80 | – | –
CC1(C)CC([S@@+]([O-])Cc2c(Cl)cccc2Cl)=NO1 [Compound 32, 3-[(S)-(2,6-Dichlorobenzyl)sulfinyl]-5,5-dimethyl-4,5-dihydroisoxazole] | 0 | 0 | 40 | 80 | 100 | 80 | – | – | very good herbicidal activity | – | – | very good herbicidal activity | – | – | – | – | – | – | 100 | 40
CC1(C)CC([S@@+]([O-])Cc2c(F)cccc2F)=NO1 [Compound 6, 3-[(S)-(2,6-Difluorobenzyl)sulfinyl]-5,5-dimethyl-4,5-dihydroisoxazole] | – | – | – | – | 90 | – | – | 0 | very good herbicidal activity | – | 60 | very good herbicidal activity | – | 80 | 0 | 100 | 100 | 100 | – | –
Cn1nc(C(F)(F)F)c(C[S+]([O-])C2=NOC(C)(C)C2)c1OC(F)F (racemic) [Racemate of 483 (S config.) and 664 (R config.), 3-({[5-(difluoromethoxy)-1-methyl-3-(trifluoromethyl)-1H-pyrazol-4-yl]methyl}sulfinyl)-5,5-dimethyl-4,5-dihydroisoxazole, reference compound] | – | – | – | 0 | 90 | – | 0 | 0 | – | 40 | 80 | – | 0 | 90 | – | – | – | – | – | –
